# Assay results reported in PMC4303209, “A novel phosphatidylinositol 3-kinase (PI3K) inhibitor directs a potent FOXO-dependent, p53-independent cell cycle arrest phenotype characterized by the differential induction of a subset of FOXO-regulated genes” (Breast Cancer Research : BCR, 2014).
# Tested on: MCF-7 breast cancer cells
# Assay: Microarray gene expression analysis (Agilent whole human genome 4 x 44K; compound vs DMSO, LIMMA log2 fold change)
# Format: cell-based
# Settings: Apoptosis genes
compound,measurement,setting,value
Oc1cccc(-c2nc(N3CCOCC3)c3oc4ncccc4c3n2)c1 [PI-103],KALRN log2FC,Gene 8997,0.194
same,SOCS3 log2FC,Gene 9021,-0.840
same,BRSK2 log2FC,Gene 9024,-0.160
same,UBE2M log2FC,Gene 9040,-0.417
same,SART1 log2FC,Gene 9092,-0.00235
same,DNAJA3 log2FC,Gene 9093,0.121
same,RABEP1 log2FC,Gene 9135,0.492
same,ARHGEF2 log2FC,Gene 9181,-0.509
same,DEDD log2FC,Gene 9191,-0.033
same,AURKB log2FC,Gene 9212,-0.231
same,FAIM3 log2FC,Gene 9214,-0.530
same,DLG5 log2FC,Gene 9231,-0.212
same,PNMA1 log2FC,Gene 9240,0.459
same,NOG log2FC,Gene 9241,-0.308
same,CRLF1 log2FC,Gene 9244,0.144
same,STK17B log2FC,Gene 9262,0.429
same,STK17A log2FC,Gene 9263,0.011
same,BCL7C log2FC,Gene 9274,-0.197
same,TAOK2 log2FC,Gene 9344,-0.249
same,SLIT2 log2FC,Gene 9353,0.341
same,SLC9A3R1 log2FC,Gene 9368,-0.528
same,TJP2 log2FC,Gene 9414,0.196
same,NTN1 log2FC,Gene 9423,-0.198
same,ITM2B log2FC,Gene 9445,0.317
same,AIM2 log2FC,Gene 9447,-0.062
same,LY86 log2FC,Gene 9450,-0.203
same,EIF2AK3 log2FC,Gene 9451,0.495
same,HAND2 log2FC,Gene 9464,-0.691
same,ATG5 log2FC,Gene 9474,-0.728
same,ROCK2 log2FC,Gene 9475,0.195
same,MAPK8IP1 log2FC,Gene 9479,0.085
same,SLC25A27 log2FC,Gene 9481,-0.081
same,PSMF1 log2FC,Gene 9491,-0.344
same,LITAF log2FC,Gene 9516,-0.833
same,EEF1E1 log2FC,Gene 9521,0.110
same,BAG4 log2FC,Gene 9530,0.152
same,BAG3 log2FC,Gene 9531,-0.812
same,EI24 log2FC,Gene 9538,-0.583
same,BCAR1 log2FC,Gene 9564,-0.480
same,BRE log2FC,Gene 9577,-0.205
same,RNF7 log2FC,Gene 9616,-0.244
same,TRAF4 log2FC,Gene 9618,-0.924
same,AATK log2FC,Gene 9625,1.492
same,IKBKE log2FC,Gene 9641,-0.667
same,PPM1F log2FC,Gene 9647,-0.302
same,RAPGEF2 log2FC,Gene 9693,0.948
same,ESPL1 log2FC,Gene 9700,0.721
same,HERPUD1 log2FC,Gene 9709,0.170
same,SLK log2FC,Gene 9748,0.857
same,BCLAF1 log2FC,Gene 9774,0.632
same,KIAA0141 log2FC,Gene 9812,0.468
same,RB1CC1 log2FC,Gene 9821,1.484
same,ARHGEF11 log2FC,Gene 9826,-0.060
same,ARHGEF17 log2FC,Gene 9828,0.506
same,MELK log2FC,Gene 9833,0.254
same,PSMD6 log2FC,Gene 9861,0.158
same,ARNT2 log2FC,Gene 9915,0.025
same,THOC1 log2FC,Gene 9984,0.375
same,CASP8AP2 log2FC,Gene 9994,0.614
same,SRA1 log2FC,Gene 10011,-0.916
same,PDCD6IP log2FC,Gene 10015,0.603
same,PDCD6 log2FC,Gene 10016,-0.491
same,BCL2L11 log2FC,Gene 10018,0.088
same,PARP2 log2FC,Gene 10038,0.326
same,DNAJB6 log2FC,Gene 10049,0.183
same,DNM1L log2FC,Gene 10059,0.444
same,PDCD7 log2FC,Gene 10081,0.098
same,PPIF log2FC,Gene 10105,-1.136
same,FEM1B log2FC,Gene 10116,-0.374
same,BCAP31 log2FC,Gene 10134,-0.357
same,RBM5 log2FC,Gene 10181,0.638
same,RNF41 log2FC,Gene 10193,0.278
same,PSME3 log2FC,Gene 10197,-1.222
same,DHRS2 log2FC,Gene 10202,0.281
same,TOPORS log2FC,Gene 10210,0.598
same,PSMD14 log2FC,Gene 10213,0.153
same,SPRY2 log2FC,Gene 10253,-0.930
same,NET1 log2FC,Gene 10276,0.503
same,UBE4B log2FC,Gene 10277,-0.565
same,SAP18 log2FC,Gene 10284,0.198
same,TRAIP log2FC,Gene 10293,0.566
same,MAEA log2FC,Gene 10296,-0.106
same,PAK4 log2FC,Gene 10298,-0.420
same,RTN3 log2FC,Gene 10313,-0.192
same,CITED2 log2FC,Gene 10370,2.312
same,SEMA3A log2FC,Gene 10371,0.050
same,DLC1 log2FC,Gene 10395,-1.010
same,GNB2L1 log2FC,Gene 10399,-0.033
same,YAP1 log2FC,Gene 10413,0.172
same,CFDP1 log2FC,Gene 10428,0.411
same,C1D log2FC,Gene 10438,0.246
same,ACAA2 log2FC,Gene 10449,0.115
same,VAV3 log2FC,Gene 10451,2.272
same,STK25 log2FC,Gene 10494,0.213
same,SEMA4D log2FC,Gene 10507,0.274
same,MYBBP1A log2FC,Gene 10514,-0.303
same,CIB1 log2FC,Gene 10519,-0.082
same,ATG7 log2FC,Gene 10533,-0.414
same,HTATIP2 log2FC,Gene 10553,0.204
same,ERN2 log2FC,Gene 10595,-0.680
same,RBCK1 log2FC,Gene 10616,-0.315
same,STAMBP log2FC,Gene 10617,0.275
same,IVNS1ABP log2FC,Gene 10625,0.167
same,TXNIP log2FC,Gene 10628,2.206
same,RRAGA log2FC,Gene 10670,-0.315
same,PNMA2 log2FC,Gene 10687,-0.058
same,CHL1 log2FC,Gene 10752,0.036
same,NES log2FC,Gene 10763,-0.277
same,PLK2 log2FC,Gene 10769,-0.927
same,ZMYND11 log2FC,Gene 10771,0.395
same,NEK6 log2FC,Gene 10783,-0.675
same,NCKAP1 log2FC,Gene 10787,0.619
same,ZNF268 log2FC,Gene 10795,0.176
same,PPP1R13L log2FC,Gene 10848,0.642
same,LILRB1 log2FC,Gene 10859,-0.213
same,MRPS30 log2FC,Gene 10884,0.033
same,PROKR1 log2FC,Gene 10887,-0.254
same,PPARGC1A log2FC,Gene 10891,0.154
same,MALT1 log2FC,Gene 10892,-0.458
same,JTB log2FC,Gene 10899,-0.072
same,BLCAP log2FC,Gene 10904,-0.472
same,EDAR log2FC,Gene 10913,-0.571
same,RNPS1 log2FC,Gene 10921,-0.284
same,FASTK log2FC,Gene 10922,-0.187
same,PRDX3 log2FC,Gene 10935,0.328
same,MLLT11 log2FC,Gene 10962,-0.868
same,YWHAQ log2FC,Gene 10971,0.144
same,IL24 log2FC,Gene 11009,-0.212
same,RIPK3 log2FC,Gene 11035,-0.030
same,PIM2 log2FC,Gene 11040,-0.544
same,DIDO1 log2FC,Gene 11083,-0.398
same,FAF1 log2FC,Gene 11124,0.215
same,CAPN10 log2FC,Gene 11132,-0.148
same,NISCH log2FC,Gene 11188,0.538
same,CHEK2 log2FC,Gene 11200,0.111
same,AKAP13 log2FC,Gene 11214,-0.354
same,DDX20 log2FC,Gene 11218,0.280
same,PDCD10 log2FC,Gene 11235,0.466
same,GABARAP log2FC,Gene 11337,0.401
same,ATF5 log2FC,Gene 22809,-1.254
same,PHLDA1 log2FC,Gene 22822,-2.154
same,CARD8 log2FC,Gene 22900,0.156
same,SNW1 log2FC,Gene 22938,0.538
same,TRIM32 log2FC,Gene 22954,-0.315
same,ACIN1 log2FC,Gene 22985,-0.228
same,TRIM35 log2FC,Gene 23087,0.205
same,KIF1B log2FC,Gene 23095,0.163
same,PSME4 log2FC,Gene 23198,-0.072
same,ARHGEF9 log2FC,Gene 23229,0.137
same,PACS2 log2FC,Gene 23241,-0.041
same,MCF2L log2FC,Gene 23263,0.306
same,TRIM2 log2FC,Gene 23321,0.862
same,ARHGEF12 log2FC,Gene 23365,0.170
same,PPP1R13B log2FC,Gene 23368,0.064
same,NCSTN log2FC,Gene 23385,0.292
same,ADNP log2FC,Gene 23394,0.175
same,SIRT1 log2FC,Gene 23411,1.169
